According to ChEMBL document CHEMBL3868619, “Synthesis and biological assessment of novel N-(hydroxy/methoxy)alkyl β-enaminone curcuminoids” (Bioorg Med Chem Lett, 2016):
In brackets after ≈: the same amount, converted by molar mass.

Tests used:
[1] = tested on: HT-29; assay: Induction of ROS generation in human HT-29 cells at 10 uM using DCFH-DA by fluorescence assay relative to control; assay type: functional
[2] = Chemical stability of the compound sodium phosphate buffer at pH 6.8 after 24 hrs by LC-MS analysis; assay type: physicochemical; settings: pH 6.8, 24 h
[3] = Cytotoxicity against human HepG2 cells assessed as decrease in cell viability after 48 hrs by MTT assay; assay type: functional, cell-based; settings: HepG2, 48 h
[4] = tested on: HT-29; assay: Induction of ROS generation in human HT-29 cells at 1 uM using DCFH-DA by fluorescence assay relative to control; assay type: functional
[5] = tested on: Caco-2; assay: Induction of ROS generation in human Caco2 cells at 10 uM using DCFH-DA by fluorescence assay relative to control; assay type: functional
[6] = Induction of ROS generation in CHOK1 cells at 10 uM using DCFH-DA by fluorescence assay relative to control; assay type: cell-based, Cricetulus griseus; settings: chinese hamster, cho-k1, 10 µM
[7] = Antioxidant activity assessed as DPPH radical scavenging activity after 30 mins by spectrophotometric analysis; assay type: functional
[8] = Cytotoxicity against human EAhy926 cells assessed as decrease in cell viability after 48 hrs by MTT assay; assay type: toxicity, cell-based, EA.hy 926; settings: EA.hy926 cells
[9] = Cytotoxicity against human Caco2 cells assessed as decrease in cell viability after 48 hrs by MTT assay; assay type: functional, cell-based; settings: Caco-2, 48 h
[10] = Aqueous solubility of the compound in sodium phosphate buffer at pH 6.8 after 90 mins by shake flask method; assay type: physicochemical
[11] = tested on: Caco-2; assay: Induction of ROS generation in human Caco2 cells at 1 uM using DCFH-DA by fluorescence assay relative to control; assay type: functional
[12] = Aqueous solubility of the compound in sodium phosphate buffer at pH 6.8 after 24 hrs by shake flask method; assay type: physicochemical
[13] = tested on: EA.hy 926; assay: Induction of ROS generation in human EAhy926 cells at 1 uM using DCFH-DA by fluorescence assay relative to control; assay type: functional
[14] = Cytotoxicity against CHOK1 cells assessed as decrease in cell viability after 48 hrs by MTT assay; assay type: toxicity, cell-based, Cricetulus griseus; settings: Chinese hamster, CHO-K1 cells
[15] = tested on: EA.hy 926; assay: Induction of ROS generation in human EAhy926 cells at 10 uM using DCFH-DA by fluorescence assay relative to control; assay type: functional
[16] = Cytotoxicity against human HT-29 cells assessed as decrease in cell viability after 48 hrs by MTT assay; assay type: functional, cell-based; settings: HT-29, 48 h
[17] = tested on: HepG2; assay: Induction of ROS generation in human HepG2 cells at 10 uM using DCFH-DA by fluorescence assay relative to control; assay type: functional
[18] = Induction of ROS generation in CHOK1 cells at 1 uM using DCFH-DA by fluorescence assay relative to control; assay type: cell-based, Cricetulus griseus; settings: chinese hamster, cho-k1, 1 µM
[19] = tested on: HepG2; assay: Induction of ROS generation in human HepG2 cells at 1 uM using DCFH-DA by fluorescence assay relative to control; assay type: functional
[20] = Solubility of the compound in ethanol; assay type: physicochemical
[21] = Solubility of the compound in 2-methyl-THF; assay type: physicochemical
[22] = Solubility of the compound in ethyl acetate; assay type: physicochemical
[23] = Solubility of the compound in dimethylformamide; assay type: physicochemical
[24] = Solubility of the compound in methanol; assay type: physicochemical
[25] = Solubility of the compound in dimethyl sulfoxide; assay type: physicochemical
[26] = Solubility of the compound in acetone; assay type: physicochemical

Stability [2] | Activity [6] | EC50 [7] | solubility thermodynamic at 1.5 h [10] | solubility thermodynamic at 24 h [12] | Activity [18] | solubility [20] | Structure (SMILES) | Activity [1] | IC50 [3] | Activity [4] | Activity [5] | IC50 at 48 h [8] | IC50 [9] | Activity [11] | Activity [13] | IC50 at 48 h [14] | Activity [15] | IC50 [16] | Activity [17] | Activity [19] | also measured
Stable | 91.7% | > 200 µM | 25.8 µM (≈ 9.8 µg/mL) | 38.8 µM (≈ 14.7 µg/mL) | 97.8% |  | COCCCN1C(/C=C/c2ccc(O)cc2)=CC(=O)CC1c1ccc(O)cc1 (centres undefined) | 74.7% | > 100 µM | 90.5% | 99.4% | > 100 µM | > 100 µM | 99% | 116.4% | > 100 µM | 118.6% | > 100 µM | 96.2% | 93.2% | 
Stable | 89.9% | 27.6 µM | 25.4 µM (≈ 10.8 µg/mL) | 56.3 µM (≈ 24 µg/mL) | 90.4% | Soluble | COc1cc(/C=C/C(=O)/C=C(/C=C/c2ccc(O)c(OC)c2)NCCCO)ccc1O | 98.8% | > 100 µM | 98.8% | 91% | > 100 µM | 75.7 µM | 93.4% | 114.3% | 88.5 µM | 102.2% | > 100 µM | 101.5% | 90% | solubility [21]: Insoluble; solubility [22]: Insoluble; solubility [23]: Soluble; solubility [24]: Soluble; solubility [25]: Soluble; solubility [26]: Insoluble
Stable | 101% | 31.5 µM | 1.51 µM (≈ 0.556 µg/mL) | 1.25 µM (≈ 0.46 µg/mL) | 103.9% |  | COc1cc(/C=C/C(=O)CC(=O)/C=C/c2ccc(O)c(OC)c2)ccc1O [CURCUMIN] | 87.3% | 72.7 µM | 97.3% | 94.8% | 24.6 µM | 38.3 µM | 89.1% | 105.5% | 42 µM | 98.8% | 51.7 µM | 99.1% | 93.7% | 
Stable | 87.6% | 49.4 µM | 29.2 µM (≈ 10.3 µg/mL) | 29.9 µM (≈ 10.5 µg/mL) | 99.4% |  | O=C1C=C(/C=C/c2ccc(O)cc2)N(CCO)C(c2ccc(O)cc2)C1 (centres undefined) | 98.8% | > 100 µM | 100.8% | 91.5% | > 100 µM | > 100 µM | 95.3% | 106.9% | > 100 µM | 101.4% | > 100 µM | 100.1% | 105.4% | 
Stable | 80.3% | 33.9 µM | 58.9 µM (≈ 25.1 µg/mL) | 62.9 µM (≈ 26.8 µg/mL) | 91.8% |  | COc1cc(/C=C/C2=CC(=O)CC(c3ccc(O)c(OC)c3)N2CCCO)ccc1O (centres undefined) | 96.5% | > 100 µM | 98.1% | 91% | > 100 µM | 88 µM | 95.6% | 122% | > 100 µM | 123.5% | > 100 µM | 96.3% | 95.2% | 

Further lines, the compound ahead of its results:

Structure (SMILES) | Stability [2] | Activity [6] | EC50 [7] | solubility thermodynamic at 1.5 h [10] | solubility thermodynamic at 24 h [12] | Activity [18] | solubility [20] | Activity [1] | IC50 [3] | Activity [4] | Activity [5] | IC50 at 48 h [8] | IC50 [9] | Activity [11] | Activity [13] | IC50 at 48 h [14] | Activity [15] | IC50 [16] | Activity [17] | Activity [19] | also measured
O=C(/C=C/c1ccc(O)cc1)CC(=O)/C=C/c1ccc(O)cc1 [BISDEMETHOXYCURCUMIN] | Stable | 107.9% | > 200 µM | 3.18 µM (≈ 0.98 µg/mL) | 4.3 µM (≈ 1.33 µg/mL) | 104.6% |  | 95.4% | > 100 µM | 101.1% | 88.8% | 54.3 µM | > 100 µM | 100.1% | 95.8% | 91.4 µM | 104.6% | > 100 µM | 69.4% | 88.8% | 
O=C(/C=C(/C=C/c1ccc(O)cc1)NCCCO)/C=C/c1ccc(O)cc1 | Stable | 80.5% | 154 µM | 137 µM (≈ 49.9 µg/mL) | 128 µM (≈ 46.9 µg/mL) | 86.4% | Soluble | 96.9% | 54.1 µM | 92.5% | 91.7% | 57.3 µM | 31.6 µM | 94.1% | 93.3% | 39.1 µM | 109.9% | 58.9 µM | 88.7% | 91.3% | solubility [21]: Insoluble; solubility [22]: Insoluble; solubility [23]: Soluble; solubility [24]: Soluble; solubility [25]: Soluble; solubility [26]: Insoluble
COCCCNC(=C\C(=O)/C=C/c1ccc(O)c(OC)c1)/C=C/c1ccc(O)c(OC)c1 | Stable | 81.2% | 29.5 µM | 7.7 µM (≈ 3.38 µg/mL) | 9.66 µM (≈ 4.25 µg/mL) | 98.3% | Soluble | 95% | > 100 µM | 99.5% | 84.8% | > 100 µM | 49.1 µM | 97.9% | 91.5% | 53.7 µM | 89.9% | 72.2 µM | 77.5% | 68.5% | solubility [21]: Insoluble; solubility [22]: Insoluble; solubility [23]: Soluble; solubility [24]: Soluble; solubility [25]: Soluble; solubility [26]: Insoluble
Cc1c(C)c2c(c(C)c1O)CCC(C)(C(=O)O)O2 (centres undefined) [TROLOX] |  |  | 29.6 µM |  |  |  |  |  |  |  |  |  |  |  |  |  |  |  |  |  | 
